From ChEMBL document CHEMBL4354807, “Natural Product Albiziabioside A Conjugated with Pyruvate Dehydrogenase Kinase Inhibitor Dichloroacetate To Induce Apoptosis-Ferroptosis-M2-TAMs Polarization for Combined Cancer Therapy” (J Med Chem, 2019)
Calls of active or inactive are those of the source. The rule behind the calls is not given here.

Assays:
HCT-116 = test: Anticancer activity against human HCT116 cells expressing PDK assessed as reduction in cell viability after 72 hrs by MTT assay; type: functional, cell-based; details: HCT-116, 72 h
MCF7 [1] = test: Induction of metabolic reversal from aerobic glycolysis to oxidative phosphorylation in human MCF7 cells assessed as decrease in extracellular acidification rate at 10 uM pretreated for 4 hrs followed by glucose addition after 25 mins followed by subsequent addition of oligomycin A after 50 mins followed by 2-DG addition after 80 mins by seahorse XF24 extracellular flux analyzer assay; type: functional, cell-based
A-375 [2] = test: Anticancer activity against human A375 cells expressing PDK assessed as reduction in cell viability after 72 hrs by MTT assay; type: functional, cell-based; details: A-375, 72 h
MCF7 [3] = test: Anticancer activity against human MCF7 cells overexpressing PDK assessed as reduction in cell viability after 72 hrs by MTT assay; type: functional, cell-based; details: MCF7, 72 h
MCF7 [4] = test: Induction of metabolic reversal from aerobic glycolysis to oxidative phosphorylation in human MCF7 cells assessed as […] at 10 uM pretreated for 6 hrs followed by oligomycin A addition after 25 mins followed by subsequent addition of FCCP after 50 mins followed by antimycin/rotenone addition after 80 mins by seahorse XF24 extracellular flux analyzer assay; type: functional, cell-based
4T1 [5] = test: Inhibition of glycolysis in mouse 4T1 cells expressing PDK assessed as reduction in intracellular lactate level at 10 uM after 6 hrs by microplate reader assay; type: functional, cell-based
MCF7 [6] = test: Antitumor activity against human MCF7 cells xenografted in BALB/c nude mouse assessed as tumor growth inhibition at 10 mg/kg, iv administered every two days for two weeks measured after 14 days; type: functional, organism-based
[7] = Toxicity in BALB/c nude mouse xenografted with human MCF7 cells assessed as mouse death at 10 mg/kg, iv administered every 2 days for 2 weeks measured after 14 days; type: organism-based; details: in vivo, 336 h
[8] = target: [Pyruvate dehydrogenase (acetyl-transferring)] kinase isozyme 1, mitochondrial (Homo sapiens) (UniProt Q15118); test: Inhibition of PDK1 (unknown origin) expressed in human MCF7 cells using PDK tide as substrate measured after 90 mins in presence of ATP by ADP-Glo luminescent kinase assay
MCF7 [9] = test: Induction of apoptosis in human MCF7 cells assessed as viable cells at 10 uM after 24 hrs by Annexin V-FITC/propidium iodide staining-based flow cytometric analysis (reference value: 93.39 %); type: functional; details: MCF7, 24 h, read-out: Activity
MCF7 [10] = test: Inhibition of glycolysis in human MCF7 cells assessed as reduction in intracellular lactate level at 10 uM after 6 hrs by microplate reader assay; type: functional, cell-based
MCF7 [11] = test: Inhibition of glycolysis in human MCF7 cells assessed as reduction in extracellular lactate level at 10 uM after 6 hrs by microplate reader assay; type: functional, cell-based
MCF7 [12] = test: Induction of apoptosis in human MCF7 cells assessed as late apoptotic cells at 10 uM after 24 hrs by Annexin V-FITC/propidium iodide staining-based flow cytometric analysis (reference value: 2.97 %); type: functional
MCF7 [13] = test: Induction of ROS generation in human MCF7 cells assessed as ROS level at 10 uM after 24 hrs by DCFDA-fluorescence based flow cytometry (reference value: 6.57 %); type: functional
MCF7 [14] = test: Induction of metabolic reversal from aerobic glycolysis to oxidative phosphorylation in human MCF7 cells assessed as […] at 10 uM pretreated for 4 hrs followed by glucose addition after 25 mins by seahorse XF24 extracellular flux analyzer assay; type: functional, cell-based
[15] = Cytotoxicity against human HBMEC cells assessed as reduction in cell viability after 72 hrs by MTT assay; type: cell-based
[16] = Toxicity in BALB/c nude mouse xenografted with human MCF7 cells assessed as effect on body weight at 10 mg/kg, iv administered every 2 days for 2 weeks measured after 14 days; type: organism-based; details: in vivo, 336 h
L02 = test: Cytotoxicity against human LO2 cells assessed as reduction in cell viability after 72 hrs by MTT assay; type: cell-based; details: L02, 72 h
MCF7 [17] = test: Induction of mitochondrial dysfunction in human MCF7 cells assessed as cell population with intact mitochondrial membrane potential at 10 uM after 24 hrs by JC1 staining-based FACScalibur flow cytometry analysis (reference value: 97%); type: functional
A-375 [18] = test: Cytotoxicity against human A375 cells assessed as reduction in cell viability after 72 hrs by MTT assay; type: functional, cell-based; details: A-375, 72 h
MCF7 [19] = test: Induction of metabolic reversal from aerobic glycolysis to oxidative phosphorylation in human MCF7 cells assessed as increase in extracellular acidification rate at 10 uM pretreated for 4 hrs followed by glucose addition after 25 mins followed by subsequent addition of oligomycin A after 50 mins by seahorse XF24 extracellular flux analyzer assay; type: functional, cell-based
4T1 [20] = test: Inhibition of glycolysis in mouse 4T1 cells expressing PDK assessed as reduction in extracellular lactate level at 10 uM after 6 hrs by microplate reader assay; type: functional, cell-based
MCF7 [21] = test: Induction of mitochondrial dysfunction in human MCF7 cells assessed as cell population with mitochondrial membrane potential collapse at 10 uM after 24 hrs by JC1 staining-based FACScalibur flow cytometry analysis (reference value: 2.74 %); type: functional
4T1 [22] = test: Anticancer activity against mouse 4T1 cells expressing PDK assessed as reduction in cell viability after 72 hrs by MTT assay; type: functional, cell-based; details: 4T1, 72 h
MCF7 [23] = test: Induction of apoptosis in human MCF7 cells assessed as early apoptotic cells at 10 uM after 24 hrs by Annexin V-FITC/propidium iodide staining-based flow cytometric analysis (reference value: 3.53 %); type: functional
MCF7 [24] = test: Cytotoxicity against human MCF7 cells assessed as cell death at 10 uM pretreated with Z-VAD-fmk followed by compound addition by MTT assay; type: functional, cell-based
MCF7 [25] = test: Induction of apoptosis in human MCF7 cells assessed as necrotic cells at 10 uM after 24 hrs by Annexin V-FITC/propidium iodide staining-based flow cytometric analysis (reference value: 0.10 %); type: functional
MCF7 [26] = test: Downregulation of PDK expression in human MCF7 cells at 2.5 to 10 uM after 48 hrs by Western blot analysis; type: functional, cell-based
MCF7 [27] = test: Induction of apoptosis in human MCF7 cells assessed as late apoptotic cells at 30 uM after 24 hrs by Annexin V-FITC/propidium iodide staining-based flow cytometric analysis (reference value: 2.97 %); type: functional
MCF7 [28] = test: Induction of apoptosis in human MCF7 cells assessed as necrotic cells at 30 uM after 24 hrs by Annexin V-FITC/propidium iodide staining-based flow cytometric analysis (reference value: 0.10 %); type: functional
MCF7 [29] = test: Cytotoxicity against human MCF7 cells assessed as cell death at 30 uM pretreated with Z-VAD-fmk followed by compound addition by MTT assay; type: functional, cell-based
[30] = Toxicity in BALB/c nude mouse xenografted with human MCF7 cells assessed as effect on body weight at 30 mg/kg, iv administered every 2 days for 2 weeks measured after 14 days; type: organism-based; details: in vivo, 336 h
[31] = Toxicity in BALB/c nude mouse xenografted with human MCF7 cells assessed as mouse death at 30 mg/kg, iv administered every 2 days for 2 weeks measured after 14 days; type: organism-based; details: in vivo, 336 h
MCF7 [32] = test: Induction of apoptosis in human MCF7 cells assessed as viable cells at 30 uM after 24 hrs by Annexin V-FITC/propidium iodide staining-based flow cytometric analysis (reference value: 93.39 %); type: functional; details: MCF7, 24 h, read-out: Activity
4T1 [33] = test: Inhibition of glycolysis in mouse 4T1 cells expressing PDK assessed as reduction in extracellular lactate level at 30 uM after 6 hrs by microplate reader assay; type: functional, cell-based
MCF7 [34] = test: Induction of apoptosis in human MCF7 cells assessed as early apoptotic cells at 30 uM after 24 hrs by Annexin V-FITC/propidium iodide staining-based flow cytometric analysis (reference value: 3.53 %); type: functional
MCF7 [35] = test: Induction of metabolic reversal from aerobic glycolysis to oxidative phosphorylation in human MCF7 cells assessed as decline in extracellular acidification rate at 30 uM pretreated for 4 hrs followed by glucose addition after 25 mins followed by subsequent addition of oligomycin A after 50 mins followed by 2-DG addition after 80 mins by seahorse XF24 extracellular flux analyzer assay; type: functional, cell-based
MCF7 [36] = test: Induction of metabolic reversal from aerobic glycolysis to oxidative phosphorylation in human MCF7 cells assessed as […] at 30 uM pretreated for 4 hrs followed by glucose addition after 25 mins by seahorse XF24 extracellular flux analyzer assay; type: functional, cell-based
4T1 [37] = test: Inhibition of glycolysis in mouse 4T1 cells expressing PDK assessed as reduction in intracellular lactate level at 30 uM after 6 hrs by microplate reader assay; type: functional, cell-based
MCF7 [38] = test: Inhibition of glycolysis in human MCF7 cells assessed as reduction in extracellular lactate level at 30 uM after 6 hrs by microplate reader assay; type: functional, cell-based
MCF7 [39] = test: Induction of metabolic reversal from aerobic glycolysis to oxidative phosphorylation in human MCF7 cells assessed as increase in extracellular acidification rate at 30 uM pretreated for 4 hrs followed by glucose addition after 25 mins followed by subsequent addition of oligomycin A after 50 mins by seahorse XF24 extracellular flux analyzer assay; type: functional, cell-based
MCF7 [40] = test: Induction of mitochondrial dysfunction in human MCF7 cells assessed as cell population with intact mitochondrial membrane potential at 30 uM after 24 hrs by JC1 staining-based FACScalibur flow cytometry analysis (reference value: 97%); type: functional
MCF7 [41] = test: Induction of ROS generation in human MCF7 cells assessed as ROS level at 30 uM after 24 hrs by DCFDA-fluorescence based flow cytometry (reference value: 6.57 %); type: functional
MCF7 [42] = test: Induction of mitochondrial dysfunction in human MCF7 cells assessed as cell population with mitochondrial membrane potential collapse at 30 uM after 24 hrs by JC1 staining-based FACScalibur flow cytometry analysis (reference value: 2.74 %); type: functional
MCF7 [43] = test: Antitumor activity against human MCF7 cells xenografted in BALB/c nude mouse assessed as tumor growth inhibition at 30 mg/kg, iv administered every two days for two weeks measured after 14 days; type: functional, organism-based
MCF7 [44] = test: Induction of metabolic reversal from aerobic glycolysis to oxidative phosphorylation in human MCF7 cells assessed as […] at 30 uM pretreated for 6 hrs followed by oligomycin A addition after 25 mins followed by subsequent addition of FCCP after 50 mins followed by antimycin/rotenone addition after 80 mins by seahorse XF24 extracellular flux analyzer assay; type: functional, cell-based
MCF7 [45] = test: Inhibition of glycolysis in human MCF7 cells assessed as reduction in intracellular lactate level at 30 uM after 6 hrs by microplate reader assay; type: functional, cell-based

CC(=O)N[C@H]1[C@H](O[C@H]2CC[C@]3(C)[C@H]4CC=C5[C@@H]6CC(C)(C)CC[C@]6(C(=O)O)CC[C@@]5(C)[C@]4(C)CC[C@H]3C2(C)C)O[C@H](CO[C@@H]2OC[C@H](O)[C@H](O)[C@H]2O)[C@@H](O)[C@@H]1O
IC50 (HCT-116): 21.6 µM
Activity (MCF7 [1]): Active
IC50 (A-375 [2]): 5.73 µM
IC50 (MCF7 [3]): 20.4 µM
Activity (MCF7 [4]): Active
inhibition (4T1 [5]): inactive
Activity (MCF7 [6]): Active
Activity [7]: Non-Toxic
inhibition [8]: inactive
viability at 10 µM (MCF7 [9]): 70.4%
inhibition (MCF7 [10]): inactive
inhibition (MCF7 [11]): inactive
Activity (MCF7 [12]): 9.07%
Activity (MCF7 [13]): 26.43%
Activity (MCF7 [14]): Active
IC50 [15]: 37.1 µM
Activity [16]: Non-Toxic
IC50 (L02): 33.2 µM
Activity (MCF7 [17]): 72.69%
IC50 (A-375 [18]): 5.47 µM
Activity (MCF7 [19]): Active
inhibition (4T1 [20]): inactive
Activity (MCF7 [21]): 25.86%
IC50 (4T1 [22]): 16.4 µM
Activity (MCF7 [23]): 18.5%
Activity (MCF7 [24]): inactive
Activity (MCF7 [25]): 2.07%

O=c1[nH]cc(F)c(=O)[nH]1 [FLUOROURACIL]
IC50 (HCT-116): 26.1 µM
IC50 (A-375 [2]): 21.1 µM
Activity (MCF7 [6]): Active
Activity [7]: Non-Toxic
IC50 [15]: 27.3 µM
Activity [16]: Non-Toxic
IC50 (L02): 29.5 µM
IC50 (4T1 [22]): 28.1 µM

O=C([O-])C(Cl)Cl.[Na+] [SODIUM DICHLOROACETATE]
IC50 (HCT-116): > 100 µM
Activity (MCF7 [26]): inactive
Activity (MCF7 [27]): 5.86%
Activity (MCF7 [28]): 1.67%
Activity (MCF7 [29]): inactive
IC50 (A-375 [2]): > 100 µM
Activity [30]: Non-Toxic
IC50 (MCF7 [3]): > 100 µM
Activity [31]: Non-Toxic
viability at 30 µM (MCF7 [32]): 79.9%
inhibition (4T1 [33]): inactive
Activity (MCF7 [34]): 12.57%
Activity (MCF7 [35]): Active
Activity (MCF7 [36]): Active
inhibition [8]: Active
inhibition (4T1 [37]): inactive
IC50 [15]: > 100 µM
inhibition (MCF7 [38]): inactive
Activity (MCF7 [39]): Active
Activity (MCF7 [40]): 84.95%
Activity (MCF7 [41]): 15.13%
IC50 (L02): > 100 µM
Activity (MCF7 [42]): 14.63%
Activity (MCF7 [43]): Active
Activity (MCF7 [44]): Active
inhibition (MCF7 [45]): inactive
IC50 (4T1 [22]): > 100 µM

CC1(C)CC[C@]2(C(=O)O)CC[C@]3(C)C(=CC[C@@H]4[C@@]5(C)CC[C@H](O[C@@H]6O[C@H](CO[C@@H]7OC[C@H](O)[C@H](O)[C@H]7O)[C@@H](O)[C@H](O)[C@H]6NC(=O)CCl)C(C)(C)[C@@H]5CC[C@]43C)[C@@H]2C1
inhibition [8]: inactive
